Results as given in patent US12594285B2, “Compositions and methods for protecting against airborne pathogens and irritants” (APPLIED BIOLOGICAL LABORATORIES, INC., priority 2016, dated 2026).

Assays:
[1] = system: Influenza A H1N1 (clinical strain: A/California/7/09); experiment: Apical Influenza replication by quantitative RT-PCR (Example 5); assay type: cell-based; settings: 3.5, 24 and 48 hours pi; Oseltamivir 10 μM in basal medium
[2] = system: Human Rhinovirus A16 (clinical strain: QCHRV.16); experiment: Apical Rhinovirus replication by quantitative RT-PCR (Example 6); assay type: cell-based; settings: Example 6; Rupintrivir 5 μM in basal medium; 3.5, 24 and 48 hours pi
[3] = system: Human Rhinovirus A16 (clinical strain: QCHRV.16); experiment: Apical Rhinovirus replication by quantitative RT-PCR (Example 4); assay type: cell-based; settings: 3.5, 24 and 48 hours pi; formulations applied apically at 0, 3.5 and 24 h; Rupintrivir 5 μM in basal medium
[4] = system: MucilAir™ 3D model of human airway epithelium infected with Rhinovirus A16; experiment: TEER tissue integrity, MucilAir inoculated with Rhinovirus A16 (Example 4); settings: toxic positive control, 10% Triton X-100, after cell damage

`CCOC(=O)C1=C[C@@H](OC(CC)CC)[C@H](NC(C)=O)[C@@H](N)C1` [Oseltamivir] was tested, and the “Influenza A H1N1 replication (genome copy number, apical washes)” value [1] was “inhibited”.
For `CCOC(=O)/C=C/[C@H](C[C@@H]1CCNC1=O)NC(=O)[C@@H](CC(=O)[C@@H](NC(=O)c1cc(C)on1)C(C)C)Cc1ccc(F)cc1` [Rupintrivir], the “Rhinovirus A16 replication (genome copy number, apical washes)” value [2] was “inhibited” and the “Rhinovirus A16 replication (genome copy number, apical washes)” value [3] was “inhibited”.
For Triton X-100, the TEER [4] was “below 100 Ωcm^2”.
